One block for each molecule: values may come before it.
Legend:
[1] = in vitro upper digestive tract model (simulated chicken crop, proventriculus/gizzard, intestine): release of butyric acid; format: in vitro ADME; settings: 50 mM butyric acid equivalent; for release of butyric acid in the stomach: proventriculus/gizzard 45 min at pH 3, 40° C. with pepsin
Experimental: The experimental tests were conducted in in vitro models described below.
The method developed by Menezez and Blackburn was used to simulate the chicken digestive tract [Menezes-Blackburn D, Gabler S, Greiner R. «Performance of Seven Commercial Phytases in an in Vitro Simulation of Poultry Digestive Tract.»J Agric Food Chem. 2015 Jul. 15; 63 (27): 6142-9]. It consists of simulating the 3 compartments of the upper part of the digestive tract: the crop (30 min at pH 5, 40° C. with stirring), the proventriculus/gizzard (45 min at pH 3, 40° C. with stirring with the addition of pepsin), the intestine (60 min at pH 6.5, 40° C. with stirring with the addition of pancreatin and bile extract). The rate of protection and release of butyrate for each molecule (50 mM butyric acid equivalent of the butyryl lactylate of the disclosure or tributyrin of the prior art) was evaluated in each compartment sequentially (quantification of the release of butyric acid and residual butyric ester).

[2] = palatability / growth performance test in broilers; format: in vivo; settings: broiler chickens, 17-21 days, butyrate source incorporated in standard feed (STD), five days
Experimental: This evaluation was carried out by in vivo tests conducted in broilers and in piglets at the post-weaning stage. The chickens were placed in normal breeding conditions. They were divided into several groups, and each group received for five days a feed containing a source of butyrate, incorporated directly into a standard feed (STD). […] The growth performances and feed consumption were measured at the beginning and end of the study.

[3] = palatability / growth performance test in post-weaning piglets; format: in vivo; set-up: concentration or dose not given beside the values; settings: butyrate source in standard feed (STD); for BWG (body weight gain), effect compared to a standard control: 36-49 days old; for FCR (feed conversion ratio), effect compared to a standard control / FI (feed intake), effect compared to a standard control: 36-49 days
Experimental: This evaluation was carried out by in vivo tests conducted in broilers and in piglets at the post-weaning stage.
The animals were placed in normal breeding conditions.
They were divided into four distinct groups, and each group received for about ten days (from 36 to 49 days of age) a standard feed (STD) containing a source of butyrate. Several sources of butyrate were compared: the butyryl lactylate of the disclosure and two protected forms of butyrate, commercially available, a coated butyrate (fat-coated) and tributyrin.
The growth performances and feed consumption were measured at the beginning and end of the study.

[4] = in vitro lower digestive tract model (caecal fermentation): release of butyric acid; format: in vitro ADME, broiler chickens (Ross PM33); settings: 50 mM butyric acid equivalent; upper tract model plus caecal fermentation 24 hours at 40° C.
Experimental: Twelve twenty-one-day-old broiler chickens (Ross PM33), housed in cages, fed and watered ad libitum, were euthanized and their caecal contents were collected and pooled. All experiments were conducted in accordance with the European Union animal protection guidelines and the legislation governing the ethical treatment of animals, and the researchers were certified by the French government to conduct animal experiments. The facilities of the Centre of Expertise and Research in Nutrition comply with Convention No. C 03 159 4 of 6 Nov. 2008, relating to experiments on living vertebrate animals (European Regulation 24/11/86 86/609 EEC; Ministerial Order of 19 Apr. 1988).
The cecal contents were mixed (5% w/v) with an anaerobic buffer prepared according to Theodorou et al. [Theodorou, Michael K., et al. “A simple gas production method using a pressure transducer to determine the fermentation kinetics of ruminant feeds.” Animal feed science and technology 48.3-4 (1994): 185-197], then the microbial suspension transferred into Hungate tubes containing 50 mM of butyric acid equivalent for each candidate (butyryl lactylate of the disclosure or tributyrin of the prior art) and incubated for 24 hours with constant stirring at 40° C.
At the end of the fermentation, the butyric acid and residual butyric ester were quantified.

[5] = solubility in water; format: physicochemical
[6] = hydrolysis in drinking water; format: physicochemical; settings: drinking water of livestock
[7] = listed as STD + tributyrine butyrate
[8] = listed as STD + butyryl lactylate
[9] = listed as STD + Butyryl lactylate

- release of butyric acid in the stomach [1]: significant gastric loss
Compound: CCCC(=O)OCC(COC(=O)CCC)OC(=O)CCC [tributyrin, reference compound]
- release of butyric acid in the intestine (upper part) ([1]; intestine 60 min at pH 6.5, 40° C. with pancreatin and bile extract): complete release at the beginning of the small intestine
- BWG (body weight gain), effect compared to a standard diet [2]: −9%
- FCR (feed conversion ratio), effect compared to a standard diet [2]: +6.6%
- FI (feed intake), effect compared to a standard diet [2]: −3%
- BWG (body weight gain), effect compared to a standard diet [2, 7]: −9%
- FI (feed intake), effect compared to a standard diet [2, 7]: −3%
- BWG (body weight gain), effect compared to a standard control [3]: −17%
- BWG (body weight gain), effect compared to a standard control [3, 7]: −17%
- FCR (feed conversion ratio), effect compared to a standard control [3]: +3.3%
- FI (feed intake), effect compared to a standard control [3]: −14%
- FCR (feed conversion ratio), effect compared to a standard control [3, 7]: +3.3%
- FI (feed intake), effect compared to a standard control [3, 7]: −14%

- solubility in water [5]: soluble in water
- hydrolysis into lactic acid and free butyric acid in drinking water [6]: without risk of hydrolysis
Compound: CCCC(=O)OC(C)C(=O)O (stereo not shown) [butyryl lactylate]
- release of butyric acid in the stomach [1]: does not release butyric acid in the stomach
- BWG (body weight gain), effect compared to a standard diet [2]: +10%
- FCR (feed conversion ratio), effect compared to a standard diet [2]: −6.7%
- FI (feed intake), effect compared to a standard diet [2]: +2.8%
- BWG (body weight gain), effect compared to a standard diet [2, 8]: +10%
- FI (feed intake), effect compared to a standard diet [2, 8]: +2.8%
- intestinal release profile of butyric acid, upper and lower intestine [4]: balanced release in the upper and lower intestine
- BWG (body weight gain), effect compared to a standard control [3]: +21%
- BWG (body weight gain), effect compared to a standard control [3, 9]: +21%
- FCR (feed conversion ratio), effect compared to a standard control [3]: −4%
- FI (feed intake), effect compared to a standard control [3]: +16%
- FCR (feed conversion ratio), effect compared to a standard control [3, 9]: −4.8%
- FI (feed intake), effect compared to a standard control [3, 9]: +16%

Source: US20250319049A1, “Additive for animal nutrition” (ADISSEO FRANCE S.A.S., priority 2022, published 2025)
